The record followed here is ChEMBL document CHEMBL1909625, “Sesquiterpene lactones from Inula falconeri, a plant endemic to the Himalayas, as potential anti-inflammatory agents” (Eur J Med Chem, 2011).

Data set [1] deals with RAW264.7. In words: Cytotoxicity against mouse RAW264.7 cells at antiinflammatory IC50 level by MTT assay. Format: cell-based.
For data set [2], the system named is RAW264.7. Nature of the data set: Antiinflammatory activity in mouse RAW264.7 cells assessed as inhibition of LPS-induced NO production pretreated for 30 mins before LPS challenge measured 24 hrs after LPS challenge by Griess reaction method. Format: functional, cell-based.

For `CC(=O)CCC1=CC[C@@H]2[C@H](C)C(=O)O[C@@H]2C[C@@H]1C`, the Activity entry in data set [1] is “Non-toxic”. Moreover, the half-maximal inhibitory concentration (IC50) in data set [2] is 64.9 µM.

As for `C=C1C(=O)O[C@@H]2C[C@@H](C)[C@@H]3CCC(=O)[C@@]3(C)C[C@H]12`, the Activity result in data set [1] was “Non-toxic”. Besides, the IC50 in data set [2] was 0.4 µM.

On to `C=C1C(=O)O[C@H]2CC(=C)[C@H]3CC[C@@](C)(O)[C@@H]3C[C@H]12` [INUVISCOLIDE], for which the Activity result in data set [1] is on record as “Non-toxic”. For the same compound, in data set [2], the half-maximal inhibitory concentration (IC50) is 9.64 µM.

Turning to `C=C1C(=O)O[C@@H]2C[C@@]3(C)[C@@H](O)C[C@@H](O)C(=C)[C@@H]3C[C@H]12` [GRANILIN], in data set [1], the Activity result is listed as “Non-toxic”. The IC50 in data set [2] stood at 0.11 µM.

On to `C=C(CCCOC(=O)CCCCCCC/C=C\C/C=C\CCCCC)[C@@H]1CC(C)(C)[C@H]1CCC(C)=O`, for which the Activity entry in data set [1] is on record as “Non-toxic”. The IC50 in data set [2] amounted to 35.5 µM.

For `C=C1C(=O)O[C@H]2C=C(C)[C@H]3CC[C@@](C)(O)[C@@H]3[C@@H](O)[C@H]12`, in data set [1], the Activity result is “Non-toxic”. Further, the IC50 in data set [2] was found to be 0.13 µM.

As for `C=C1C(=O)O[C@@H]2C[C@@]3(C)[C@@H](O)C[C@@H](OC(=O)C(C)C)C(=C)[C@@H]3C[C@H]12`, in data set [1], the Activity entry is on record as “Non-toxic”. The IC50 in data set [2] came out at 9.12 µM.

For the compound `CC(=O)O[C@H]1[C@H]2[C@H](C[C@@H](C)[C@@H]3CCC(=O)[C@]31C)OC(=O)[C@@H]2C` [DIHYDROERGOLIDE], the Activity result in data set [1] is “Non-toxic”. Further, in data set [2], the IC50 stood at 8.34 µM.

In the case of `C=C1C(=O)O[C@@H]2C[C@H](C)C(CCC(C)O)=CC[C@H]12` (some centres not stated), the Activity entry in data set [1] is “Non-toxic”. Further, in data set [2], the IC50 worked out at 5.48 µM.

Take `C=C1C(=O)O[C@@H]2C[C@H](C)[C@]3(CCC(C)O)O[C@@H]3C[C@H]12` (some centres not stated): in data set [1], the Activity result is “Non-toxic”. Moreover, the half-maximal inhibitory concentration (IC50) in data set [2] was determined as 18.9 µM.

For the compound `C=C1C(=O)O[C@H]2C[C@@H](C)[C@@H]3CCC(=O)[C@@]3(C)[C@@H](OC(C)=O)[C@H]12` [ERGOLIDE], the Activity entry in data set [1] is “Non-toxic”. Moreover, in data set [2], the IC50 came to 0.07 µM.

Take `CC(=O)CCC1=C[C@@H](O)[C@@H]2[C@H](C)C(=O)O[C@@H]2C[C@@H]1C`: the Activity result in data set [1] was “Non-toxic”. Besides, the concentration for half-maximal inhibition (IC50) in data set [2] turned out to be 21.9 µM.

Consider `C=C1C(=O)O[C@H]2C[C@H](C)[C@@H]3CC[C@@]4(C)O[C@@]34C[C@H]12`, for which the Activity result in data set [1] is “Non-toxic”. For the same compound, in data set [2], the IC50 was 0.11 µM.

For the compound `C=C1C[C@H]2OC(=O)C(=C)[C@H]2C[C@@H]2[C@@H]1CC[C@@]2(C)O`, the Activity entry in data set [1] is on record as “Non-toxic”. In addition, the IC50 in data set [2] came to 3.94 µM.

With `C=C1C(=O)O[C@H]2C[C@@H](C)[C@@H]3CC[C@H](O)[C@@]3(C)C[C@H]12` [PSEUDOGUAIANOLIDE], in data set [1], the Activity result is recorded as “Non-toxic”. Further, in data set [2], the IC50 is 9.89 µM.

As for `C[C@@H]1C[C@@H]2OC(=O)[C@H](C)[C@H]2C[C@]2(C)C(=O)CC[C@@H]12`, the Activity result in data set [1] is given as “Non-toxic”. Further, the half-maximal inhibitory concentration (IC50) in data set [2] amounted to 10.8 µM.

As for `C=C1C[C@@H]2OC(=O)[C@@H](C)[C@H]2C[C@@H]2[C@@H]1CC[C@@]2(C)O`, the Activity result in data set [1] was “Non-toxic”. Further, the IC50 in data set [2] stood at 19.5 µM.

Turning to `C=C1C(=O)O[C@H]2C[C@@H](C)[C@@H]3CCC(=O)[C@@]3(C)[C@@H](O)[C@H]12` [CARPESIOLIN], in data set [1], the Activity entry is given as “Non-toxic”. The IC50 in data set [2] was 2.18 µM.

Regarding `C=C1C(=O)O[C@H]2C[C@@H](C)[C@@H]3CC[C@H](O)[C@@]3(C)[C@@H](OC(C)=O)[C@H]12`, the Activity entry in data set [1] was “Non-toxic”. Moreover, the IC50 in data set [2] turned out to be 0.36 µM.

For the compound `C=C1C(=O)O[C@@H]2C[C@@]3(C)[C@@H](O)C[C@@H](OC(=O)C=C(C)C)C(=C)[C@@H]3C[C@H]12`, the Activity result in data set [1] was “Non-toxic”. In data set [2], the IC50 was found to be 4.7 µM.

As to `C=C1C(=O)O[C@H]2C=C(C)[C@@H]3CC[C@](C)(O)[C@@H]3C[C@H]12` [4-EPI-ISOINUVISCOLIDE], in data set [1], the Activity entry was “Non-toxic”. Moreover, the IC50 in data set [2] is 5.94 µM.

Regarding `N=C(N)NN` [PIMAGEDINE], the IC50 in data set [2] amounted to 0.2 µM.

On to `C=C1C[C@@H]2OC(=O)[C@H](C)[C@H]2C[C@@H]2[C@@H]1CC[C@@]2(C)O`, for which the Activity result in data set [1] is recorded as “Non-toxic”. Besides, the IC50 in data set [2] was 41.2 µM.

Regarding `C=C1C(=O)O[C@H]2CC(=C)[C@H]3CC[C@@](C)(O)[C@@H]3[C@@H](O)[C@H]12`, in data set [1], the Activity result is “Non-toxic”. Also, the IC50 in data set [2] came out at 0.29 µM.

For the compound `C=C1C(=O)O[C@@H]2C[C@@]3(C)O[C@@H]3CC[C@@]3(C)O[C@H]3C[C@@H]12`, the Activity result in data set [1] is listed as “Non-toxic”. The IC50 in data set [2] is 6.4 µM.

As to `C=C1C(=O)O[C@H]2C[C@@H](C)C(CCC(C)O)=CC[C@H]12` (some centres not stated), the Activity entry in data set [1] is on record as “Non-toxic”. Further, in data set [2], the IC50 came to 0.87 µM.

As for `C=C1C(=O)O[C@H]2C[C@H](C)[C@@H]3CC(=O)C(C)=C3C[C@H]12` [XERANTOLIDE], in data set [1], the Activity entry was “Non-toxic”. The IC50 in data set [2] is 12.9 µM.

For the compound `C=C1C(=O)O[C@H](CC(C)=O)[C@@H]1CC1=C(C)CCC1=O` [POSTIA SECOGUAIANOLIDE], the Activity entry in data set [1] was “Non-toxic”. For the same compound, in data set [2], the IC50 amounted to 15.8 µM.

For the compound `C=C1C(=O)O[C@@H]2C[C@H](C)C(CCC(C)=O)=CC[C@H]12` [TOMENTOSIN], in data set [1], the Activity result is listed as “Non-toxic”. Also, the IC50 in data set [2] came out at 7.14 µM.

Take `C=C1C(=O)O[C@@H]2C[C@H](C)C(CCC(C)OC(C)=O)=CC[C@H]12` (some centres not stated): in data set [1], the Activity result is on record as “Non-toxic”. For the same compound, the IC50 in data set [2] came to 0.81 µM.

Regarding `C=C1C(=O)O[C@@H]2C[C@@]3(C)CCC[C@H](C)C3=C[C@H]12` [HELENINE], the Activity result in data set [1] is given as “Non-toxic”. For the same compound, in data set [2], the IC50 is 1.17 µM.

As to `C[C@@H]1C[C@@H]2OC(=O)[C@H](C)[C@H]2[C@H](O)[C@]2(C)C(=O)CC[C@@H]12`, the Activity entry in data set [1] is reported as “Non-toxic”. The IC50 in data set [2] came out at 20.3 µM.

Turning to `C=C1C(=O)O[C@H]2C[C@@H](C)[C@@H]3CC[C@H](OC(C)=O)[C@@]3(C)[C@@H](O)[C@H]12`, in data set [1], the Activity result is reported as “Non-toxic”. In addition, the IC50 in data set [2] came out at 2.05 µM.

Regarding `C=C1C[C@H]2OC(=O)C(=C)[C@H]2C[C@@H]2[C@@H]1CC[C@]2(C)O`, the Activity entry in data set [1] is listed as “Non-toxic”. Moreover, the concentration for half-maximal inhibition (IC50) in data set [2] turned out to be 7.3 µM.
